Several values for one entry are separate records, joined by “and”; a condition that tells them apart may be missing. Equal values may be shown once. Entries after “also recorded” stand apart in the source; their conditions may differ. Read-outs that look alike come from different tables or passages of the source.
Legend:
tyrosinase = conditions: cited from earlier work
[1] = In vitro determination of the sun protection factor (UV absorbance, Mansur equation); type: physicochemical; conditions: compounds 0.1 mg/mL, absorbance 290–320 nm
Procedure: The sun protection factor of coumarins’ derivatives was measured by the UV absorbance method, as previously reported. The absorbances of the compounds (0.1 mg/mL) were registered in the range of 290–320 nm, with 5 nm increments, and three measurements were performed at each point. The SPF was determined by using the Mansur Equation [23]: SPF=CF × Σ290320 × EE(λ) × I(λ) × Abs(λ) where CF = correction factor (10); EE (λ) = erythemogenic effect of radiation with wavelength λ; I(λ) = solar intensity spectrum; Abs(λ) = spectrophotometric absorbance values at wavelength λ. The values of EE (λ) × I(λ) are constant as determined by Sayre et al. (Table 5).

[2] = molecular target: porcine pancreatic elastase (Sus scrofa, UniProt P00772); assay: Elastase inhibition assay (SANA substrate); type: biochemical; conditions: for inhibition at 50 µM: read-out: Enzyme inhibition Elastase; for IC50: mean ± SD of three independent experiments; for inhibition at 50 µM / Enzyme inhibition Elastase: 50 μM
Chain of porcine pancreatic elastase (P00772 27-266): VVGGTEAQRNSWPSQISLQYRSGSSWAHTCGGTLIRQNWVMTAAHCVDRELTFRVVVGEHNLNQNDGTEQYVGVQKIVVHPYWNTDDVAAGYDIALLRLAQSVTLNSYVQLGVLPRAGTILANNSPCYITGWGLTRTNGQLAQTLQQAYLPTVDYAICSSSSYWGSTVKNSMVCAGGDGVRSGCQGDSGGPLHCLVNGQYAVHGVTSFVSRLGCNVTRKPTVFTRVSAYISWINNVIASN
Procedure: (§1) Since the compounds were dissolved in DMSO, in the assays carried out without compounds, DMSO was added to the reaction mixture as blank control. […] Data from activity experiments were recorded using an Ultrospec 2100 spectrophotometer (Biochrom Ltd., Cambridge, UK).
The inhibition of elastase was determined by measuring the production of p-nitroaniline during the reaction of the enzyme with the N-succ-(Ala)3-nitroanilide (SANA) substrate. The assay was carried out in Tris-HCl buffer (0.1 M, pH 8.0) containing porcine pancreatic elastase (3.3 µg/mL). The reaction mixture was incubated in the presence or in the absence of the test compounds for 20 minutes and, once the substrate (1.6 mM) was added, the enzyme activity was monitored at 410 nm.

[3] = system: Human skin keratinocyte cell line (HaCaT); assay: HaCaT cell viability (MTT assay); type: cell-based; conditions: 10–200 μM, 24 h
Procedure: Human skin keratinocyte cell line (HaCaT; CLS–Cell Lines Service, Eppelheim, Germany) was cultured in Dulbecco’s Modified Eagle’s Medium (DMEM) with 10% fetal bovine serum (FBS; Gibco, NY, USA) and 1% penicillin/streptomycin at 37 °C in a humidified atmosphere with 5% CO2. Cell viability was determined by the MTT (3-(4,5-dimethylthiazol-2-yl)-2,5-diphenyltetrazolium bromide) colorimetric assay, as previously reported. Briefly, HaCaT cells were seeded in 96-well plates and incubated with compounds at different concentrations (0–200 µM). After 24 h, cells were labelled with MTT solution for 3 h at 37 °C. DMSO was added to the formed violet formazan precipitates and the absorbance of each well was measured at 560 nm.

[4] = system: Collagenase from Clostridium histolyticum; assay: Collagenase inhibition assay (FALGPA substrate); type: biochemical; conditions: for Enzyme inhibition Collagenase: 100 μM; for IC50: mean ± SD of three independent experiments
Procedure: as §1, with “Results from all the inhibition tests described below were reported as a percentage of the blank control. Since” for “Since”
Collagenase from Clostridium histolyticum (1 U/mL) was prepared in 0.05 M Tricine buffer (pH 7.5), with 0.4 M NaCl and 0.01 M CaCl2, and incubated with different concentrations of test samples for 15 minutes. After adding the N-(3-[2-Furyl]-acryloyl)-Leu-Gly-Pro-Ala (FALGPA) substrate, prepared in the same buffer solution reaching a final concentration of 0.8 mM, the absorbance was registered at 340 nm. Epigallocatechin gallate was used as a positive control.

mushroom tyrosinase = assay: Tyrosinase inhibition assay (L-DOPA substrate); type: biochemical; conditions: for Enzyme inhibition Tyrosinase: 50 μM; for IC50: mean ± SD of three independent experiments
Procedure: as §1
The inhibition of tyrosinase was monitored by using DOPA as substrate. The reaction solution contained phosphate buffer (25 mM, pH 6.8) and mushroom tyrosinase (100 U/mL), with or without test samples.

hyaluronidase = molecular target: T1, hyaluronidase (Bos taurus, UniProt Q2YDK3); assay: Hyaluronidase inhibition assay; type: biochemical; conditions: ratio of IC50 values
T1 sequence (Q2YDK3 36-553): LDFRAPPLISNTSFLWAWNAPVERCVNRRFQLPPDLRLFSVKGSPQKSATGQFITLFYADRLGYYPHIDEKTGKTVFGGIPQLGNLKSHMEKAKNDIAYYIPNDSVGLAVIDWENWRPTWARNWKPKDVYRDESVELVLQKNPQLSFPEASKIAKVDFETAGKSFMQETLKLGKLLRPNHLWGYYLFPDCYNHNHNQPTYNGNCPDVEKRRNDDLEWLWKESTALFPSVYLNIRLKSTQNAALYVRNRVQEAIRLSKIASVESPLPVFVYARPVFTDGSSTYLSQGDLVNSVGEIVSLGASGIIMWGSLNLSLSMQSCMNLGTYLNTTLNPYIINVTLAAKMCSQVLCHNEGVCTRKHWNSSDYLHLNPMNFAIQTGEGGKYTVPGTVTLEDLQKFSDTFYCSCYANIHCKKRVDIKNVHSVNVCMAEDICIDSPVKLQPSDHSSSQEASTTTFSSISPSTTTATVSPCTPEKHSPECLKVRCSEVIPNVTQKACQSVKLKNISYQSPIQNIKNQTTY
Procedure: as §1
Inhibition of hyaluronidase was determined following the method reported by Chompoo and co-authors. A 5 μL test sample was incubated with 100 μL of enzyme solution (1.5 U) containing 20 mM sodium phosphate buffer (pH 7.0) with 77 mM NaCl and bovine serum albumin (BSA) 0.01%. […] After 10 minutes at room temperature, the absorbance was monitored at 600 nm.

[5] = already described by our research group

Structure (SMILES) | IC50 (tyrosinase) | IC50 (tyrosinase; [5]) | SPF [1] | inhibition at 50 µM [2] | IC50 [2] | Cytotoxicity on HaCaT cell viability [3] | Enzyme inhibition Collagenase [4] | IC50 [4] | Enzyme inhibition Tyrosinase (mushroom tyrosinase) | IC50 (mushroom tyrosinase) | times more active than the standard inhibitor kojic acid (tyrosinase) (mushroom tyrosinase; ratio of IC50 values) | Enzyme inhibition Elastase [2] | times more active than the reference compound oleanolic acid (hyaluronidase) (hyaluronidase) | times more active than the reference compound epigallocatechin gallate (collagenase) ([4]; ratio of IC50 values)
Nc1cc2ccc(O)cc2oc1=O [3-Amino-7-hydroxycoumarin] | 50 µM |  |  |  |  |  |  |  |  |  |  |  |  | 
O=c1oc2c(O)cc(O)cc2cc1-c1cc(O)c(O)c(O)c1 [6,8-Dihydroxy-3-(3',4',5'-trihydroxyphenyl)coumarin] |  | 270 µM |  |  |  |  |  |  |  |  |  |  |  | 
O=c1oc2c(O)cc(Br)cc2cc1-c1ccc(O)cc1 [6-Bromo-8-hydroxy-3-(4'-hydroxyphenyl)coumarin] |  | 215 µM |  |  |  |  |  |  |  |  |  |  |  | 
O=c1oc2cc(O)cc(O)c2cc1-c1cccc(Br)c1 [Compound 2, 3-(3′-Bromophenyl)-5,7-dihydroxycoumarin] |  |  | 4.52 ± 0.22 | 20.3% | > 50 µM | non-cytotoxic; also recorded: no toxicity | 44.3% | 110 ± 2.8 µM | 79.2% | 7.03 µM and 7 µM | 2.6 times |  |  | 
O=c1oc2cc(O)cc(O)c2cc1-c1ccccc1Br [Compound 3, 3-(2′-Bromophenyl)-5,7-dihydroxycoumarin] |  |  | 5.89 ± 0.21 |  | > 50 µM |  | 37.1% | 125 ± 10.2 µM | 29.3% | > 50 µM |  | N.I |  | 
O=c1oc2cc(O)c(O)cc2cc1-c1ccc(Br)cc1 [Compound 4, 3-(4′-Bromophenyl)-6,7-dihydroxycoumarin] |  |  |  | 30.5% | > 50 µM |  | N.I. | > 150 µM | 58.3% | 39.9 ± 0.7 µM |  |  | 1.9 times | 
O=c1oc2cc(O)c(O)cc2cc1-c1cccc(Br)c1 [Compound 5, 3-(3′-Bromophenyl)-6,7-dihydroxycoumarin] |  |  |  | 68.4% | 37.4 µM |  | 18.2% | > 150 µM | 80.3% | 8.25 µM and 8.3 µM |  |  |  | 
O=c1oc2cc(O)c(O)cc2cc1-c1ccccc1Br [Compound 6, 3-(2′-Bromophenyl)-6,7-dihydroxycoumarin] |  |  | 8.08 and 8.08 ± 0.01 | 23.8% | > 50 µM |  | 38.1% | 140 ± 8 µM | 25.8% | > 50 µM |  |  |  | 
O=c1oc2c(O)c(O)ccc2cc1-c1ccc(Br)cc1 [Compound 7, 3-(4′-Bromophenyl)-7,8-dihydroxycoumarin] |  |  | 5.88 ± 1.35 | 15.6% | > 50 µM |  | N.I. | > 150 µM | 9.6% | > 50 µM |  |  |  | 
O=c1oc2c(O)c(O)ccc2cc1-c1cccc(Br)c1 [Compound 8, 3-(3′-Bromophenyl)-7,8-dihydroxycoumarin] |  |  | 6.94 ± 2.57 | 2.2% | > 50 µM |  | 39.9% | 122 ± 4.8 µM | 33.6% | > 50 µM |  |  |  | 
O=c1oc2c(O)c(O)ccc2cc1-c1ccccc1Br [Compound 9, 3-(2′-Bromophenyl)-7,8-dihydroxycoumarin] |  |  | 4.27 ± 0.91 |  | > 50 µM |  | 14.7% | > 150 µM | 15.7% | > 50 µM |  | N.I |  | 
O=c1oc2cc(O)ccc2cc1-c1cccc(Br)c1 [Compound 10, 3-(3′-Bromophenyl)-7-hydroxycoumarin] |  |  | 6.70 ± 1.30 | 38.9% | > 50 µM |  | 13.2% | > 150 µM | 56.9% | 42 ± 1.1 µM |  |  |  | 
O=c1oc2cc(O)c(O)cc2cc1-c1cccc(O)c1 [Compound 11, 6,7-Dihydroxy-3-(3′-hydroxyphenyl)coumarin] |  |  | 5.44 and 5.44 ± 0.64 | 29.6% | > 50 µM |  | 35.7% | 143 ± 7.1 µM | 8.6% | > 50 µM |  |  |  | 
O=c1oc2cc(O)c(O)cc2cc1-c1ccccc1O [Compound 12, 6,7-Dihydroxy-3-(2′-hydroxyphenyl)coumarin] |  |  | 5.64 and 5.64 ± 1.43 | 24.5% | > 50 µM |  | 39.3% | 134 ± 6.6 µM | 22.7% | > 50 µM |  |  |  | 
O=c1oc2ccc3ccccc3c2cc1-c1ccc(O)cc1 [Compound 13, 3-(4′-Hydroxyphenyl)benzo[f]coumarin] |  |  | 6.40 ± 1.53 | 20.7% | > 50 µM |  | 51.5% | 96.8 ± 5.9 µM | 23.2% | > 50 µM |  |  |  | 1.25 times
O=c1oc2ccc3ccccc3c2cc1-c1cccc(O)c1 [Compound 14, 3-(3′-Hydroxyphenyl)benzo[f]coumarin] |  |  | 5.08 ± 0.46 | 35.3% | > 50 µM |  | 21.2% | > 150 µM | 22.3% | > 50 µM |  |  |  | 
O=c1oc2ccc3ccccc3c2cc1-c1ccccc1O [Compound 15, 3-(2′-Hydroxyphenyl)benzo[f]coumarin] |  |  | 6.89 ± 3.28 |  | > 50 µM |  | N.I. | > 150 µM | N.I | > 50 µM |  | N.I |  | 
O=c1oc2ccc3ccccc3c2cc1-c1ccc(O)c(O)c1 [Compound 16, 3-(3′,4′-Dihydroxyphenyl)benzo[f]coumarin] |  |  | 5.09 ± 1.35 | 22.8% | > 50 µM |  | 7.9% | > 150 µM | N.I | > 50 µM |  |  |  | 
O=c1oc2ccc3ccccc3c2cc1-c1cc(O)cc(O)c1 [Compound 17, 3-(3′,5′-Dihydroxyphenyl)benzo[f]coumarin] |  |  | 4.34 ± 0.66 | 22.4% | > 50 µM |  | 15.6% | > 150 µM | 10.0% | > 50 µM |  |  |  | 
O=C(O[C@@H]1Cc2c(O)cc(O)cc2O[C@@H]1c1cc(O)c(O)c(O)c1)c1cc(O)c(O)c(O)c1 [Epigallocatechin gallate, reference compound] |  |  |  |  |  |  |  | 121 ± 6.2 µM |  |  |  |  |  | 
O=c1ccc2cc(O)c(O)cc2o1 [Esculetin] |  | 43 µM |  |  |  |  |  |  |  |  |  |  |  | 

— article PMC9611449, “Hydroxy-3-Phenylcoumarins as Multitarget Compounds for Skin Aging Diseases: Synthesis, Molecular Docking and Tyrosinase, Elastase, Collagenase and Hyaluronidase Inhibition, and Sun Protection Factor” (Molecules, 2022)
